# Results reported in US7989599B2, “Activator including biosurfactant as active ingredient, mannosyl erythritol lipid, and production method thereof” (Toyo Boseki Kabushiki Kaisha, priority 2009, dated 2011).
# Assay: Ability to form liquid crystal, water-invading method
# Format: physicochemical
# Settings: polarization microscope, compared with conventional MEL, FIGS. 10 and 11
# Source text: Evaluation of the ability to form liquid crystals can be made by a conventional and publicly known method. An example of the method for easily comparing the ability to form liquid crystals is a water invading method. In this method, MEL is applied on a slide glass and distilled water is dropped beside the applied area, and a liquid crystal phase formed at an interface by dropping of the distilled water is observed by a microscope. Thus, behavior of liquid crystal formation can be searched. With the method, it is possible to easily compare the conventional MEL with the MEL optical isomer of the present invention in terms of their abilities to form liquid crystals.
# MEL produced by Pseudozyma tsukubaensis JCM 10324 strain obtained in Example 8 and conventional MEL produced by Pseudozyma antarctica KM-34 (FERMP-20730) strain were compared with each other by a water-invading method in terms of their abilities to form liquid crystal.
substance,measurement,value
"1-(6′-acetyl-2′,3′-di-O-alka(ke)noyl-β-D-mannnopyranosyl-)meso-erythritol",ability to form liquid crystal (lamella phase),has an ability to form lamella phase in a very wider concentration range than conventional MEL
